Read-outs that look alike come from different tables or passages of the source.
Columns and labels:
[1] = test system: standard screening panel of fifty-five GPCRs, enzymes, ion channels, and transporters; parameters: method as in PMID 26181715; settings: cited from earlier work
[2] = Single dose pharmacokinetic study in cynomolgus monkey; format: in vivo
Protocol: Pharmacokinetic studies were conducted in male beagle dogs and male cynomolgus monkeys at SRI International, Menlo Park, CA. General procedures for animal care and housing were in accordance with the National Research Council (NRC) Guide for the Care and Use of Laboratory Animals (1996) and the Animal Welfare Standards incorporated in 9 CFR Part 3, 1991 and complied with guidelines set forth by the ARVO Animal Statement for the Use of Animals in Ophthalmic and Vision Research. During the course of the PK experiments, cynomolgus monkeys were individually housed in stainless steel primary enclosures in an AAALAC-accredited facility. Animals were fed a commercial monkey chow, and supplemental food was provided (fresh fruits, vegetables, seeds, and nuts). Reverse osmosis-purified drinking water was available at all times. Cynomolgus monkeys were maintained on a 12:12 hour light:dark cycle at the 64–84°F temperature and 30–70% humidity. Monkeys had access to enrichment opportunities (grooming devices, foraging devices, activity panels and mirrors) and were provided auditory stimuli and human interaction enrichment throughout the study. Blood samples were collected by venipuncture of a peripheral vein. Animals were acclimated to the squeeze back mechanism in their home cage by repeated, short periods of restraint during general husbandry procedures for at least 2 weeks prior to dosing. Animal were not removed from their cages for collection, and no anesthesia/analgesic agents were used for blood collection. […] For PK experiments, beagle dogs were individually housed in enclosed run (≥ 4 ft x 6 ft). Dogs were exposed to their daily ration of food, Harlan Teklad 2025C Certified Global 25% Protein Dog Diet. Water was provided from the public water supply (municipal tap water) ad libitum. Dogs were maintained on a 12:12 hour light:dark cycle at the 72–73°F temperature and 40–71% humidity. Every effort was made to minimize, if not eliminate, pain and suffering in all animals in this study. No restraining devices were used in blood collecting procedures. Dogs were gentle hand-held to restrain by trained technicians with the dogs foreleg extended for sample collection of blood from cephalic vein. Animals were awake during blood sample collection with no anesthesia/analgesic agents used, and positive reinforcement by the technician was provided following collection. […] All dogs were released back to the colony after the study was completed. Male beagle dogs and male cynomolgus monkey received a single i.v. dose of a test compound at 0.5 mg kg^−1 (dog) and 1 mg kg^−1 (monkey) or a single p.o. dose of a test compound of at 2 mg kg^−1 (dog) and 5 mg kg^−1 (monkey). The number of animals that was used in PK experiments is 3 per study group. Intravenous administration vehicle was 3% DMA/45% PEG300/12% ethanol/40% sterile water; p.o. vehicle was 2% Tween 80 in 0.9% saline. […] Blood samples were processed to plasma. Following protein extraction with acetonitrile, compound concentrations in plasma were measured by LC-MS/MS. The plasma drug level data were analyzed using WinNonlin software package; Model 201 (for i.v. bolus administration);was used for the analysis of i.v. data, and Model 200 (for extravascular administration) was used for the analysis of the p.o. data. Aliquots of pre-dose plasma samples, as well as aliquots of plasma PK samples, were used for the analysis of the plasmabiomarker, RBP4.
Administration to Non-Human Primates
II. MATERIALS AND METHODS

[3] = Cyno, 5.0 mg kg^−1 p.o., mean ± SD, n=3
[4] = male, cynomolgus monkey, plasma, iv, 1 mg/kg, non-human primate, iv 1.0 mg/kg, read-out: Plasma level, Individual animals
[5] = male, cynomolgus monkey, plasma, iv, 1 mg/kg, non-human primate, iv 1.0 mg/kg, read-out: Plasma level, Mean
[6] = male, cynomolgus monkey, plasma, po, 5 mg/kg, non-human primate, po 5 mg/kg, read-out: Plasma level, Individual animals
[7] = male, cynomolgus monkey, plasma, po, 5 mg/kg, non-human primate, po 5 mg/kg, read-out: Plasma level, Mean

Question: Which “off-target activity within standard screening panel” value [1] does the source give for `Cc1cc(C(=O)O)nc(N2C[C@H]3C[C@@H](c4ccccc4C(F)(F)F)C[C@H]3C2)n1` [BPN-14136] here?
Answer: no significant off-target activity

Question: And the “%F, bioavailability” value ([2]; Cyno, 5.0 mg kg^−1 p.o. vs 1.0 mg kg^−1 i.v.)?
Answer: 84.3 ± 24.8%

Question: What about the AUCinf [2, 3] of the same compound?
Answer: 826.6 ± 243.1 µg·h/mL

Question: And the Cmax [2, 3]?
Answer: 31500 ± 200 ng/mL

Question: And the AUC(0-inf) ([2]; male, cynomolgus monkey, plasma, iv, 1 mg/kg, Cyno, 1.0 mg kg^−1 i.v., mean ± SD, n=3)?
Answer: 196 ± 42.2 µg·h/mL

Question: What about the Cmax ([2]; male, cynomolgus monkey, plasma, iv, 1 mg/kg, Cyno, 1.0 mg kg^−1 i.v., mean ± SD, n=3, read-out: Cmax, maximum observed concentration at first time point) of the same compound?
Answer: 11400 ± 600 ng/mL

Question: What about the concentration at 0.0083 hr [2, 4] of the same compound?
Answer: 10900 ng/mL

Question: And the concentration at 0.0083 hr [2, 5]?
Answer: 11400 ng/mL

Question: And the concentration at 0.25 hr ([2]; male, cynomolgus monkey, plasma, iv, 1 mg/kg, non-human primate, iv 1.0 mg/kg, 0.25 hr, read-out: Plasma level, Individual animals)?
Answer: 10500 ng/mL

Question: And the concentration at 0.25 hr ([2]; male, cynomolgus monkey, plasma, iv, 1 mg/kg, non-human primate, iv 1.0 mg/kg, 0.25 hr, read-out: Plasma level, Mean)?
Answer: 10700 ng/mL

Question: What about the concentration at 0.5 hr [2, 4] of the same compound?
Answer: 9300 ng/mL

Question: What about the concentration at 0.5 hr [2, 5] of the same compound?
Answer: 9570 ng/mL

Question: What about the concentration at 1 hr [2, 4] of the same compound?
Answer: 9470 ng/mL

Question: What about the concentration at 1 hr [2, 5] of the same compound?
Answer: 9060 ng/mL

Question: And the concentration at 2 hr [2, 4]?
Answer: 8910 ng/mL

Question: What about the concentration at 2 hr [2, 5] of the same compound?
Answer: 8080 ng/mL

Question: And the concentration at 4 hr [2, 4]?
Answer: 7450 ng/mL

Question: And the concentration at 4 hr [2, 5]?
Answer: 7080 ng/mL

Question: And the concentration at 8 hr [2, 4]?
Answer: 6160 ng/mL

Question: And the concentration at 8 hr [2, 5]?
Answer: 5890 ng/mL

Question: What about the concentration at 12 hr [2, 4] of the same compound?
Answer: 4470 ng/mL

Question: And the concentration at 12 hr [2, 5]?
Answer: 4780 ng/mL

Question: What about the concentration at 24 hr [2, 4] of the same compound?
Answer: 2840 ng/mL

Question: And the concentration at 24 hr [2, 5]?
Answer: 2930 ng/mL

Question: What about the concentration at 36 hr ([2]; male, cynomolgus monkey, plasma, iv, 1 mg/kg, non-human primate, iv 1.0 mg/kg, 36 hr, read-out: Plasma level, Mean) of the same compound?
Answer: 1670 ng/mL

Question: What about the concentration at 48 hr ([2]; male, cynomolgus monkey, plasma, iv, 1 mg/kg, non-human primate, iv 1.0 mg/kg, 48 hr, read-out: Plasma level, Mean) of the same compound?
Answer: 1050 ng/mL

Question: What about the AUC(0-t) ([2]; male, cynomolgus monkey, plasma, iv, Cyno, 1.0 mg kg^−1 i.v., mean ± SD, n=3) of the same compound?
Answer: 171 ± 27 µg·h/mL

Question: And the clearance ([2]; male, cynomolgus monkey, plasma, iv, Cyno, 1.0 mg kg^−1 i.v., mean ± SD, n=3, read-out: CL, total body clearance (converted))?
Answer: 5.25 mL/h/kg

Question: And the half-life ([2]; male, cynomolgus monkey, plasma, iv, Cyno, 1.0 mg kg^−1 i.v., mean ± SD, n=3, read-out: T1/2, apparent terminal half-life (converted))?
Answer: 15.6 ± 3.3 h

Question: And the Vd ([2]; male, cynomolgus monkey, plasma, iv, Cyno, 1.0 mg kg^−1 i.v., mean ± SD, n=3, read-out: Vss, volume of distribution at steady state)?
Answer: 0.113 ± 0.004 L/kg

Question: What about the bioavailability ([2]; male, cynomolgus monkey, plasma, oral, 5 mg kg^−1, Cyno, 5.0 mg kg^−1 p.o. vs 1.0 mg kg^−1 i.v., read-out: %F, bioavailability) of the same compound?
Answer: ~84%

Question: What about the AUC(0-inf) ([2]; male, cynomolgus monkey, plasma, po, 5 mg/kg, Cyno, 5.0 mg kg^−1 p.o., mean ± SD, n=3) of the same compound?
Answer: 676 µg·h/mL

Question: And the Cmax ([2]; male, cynomolgus monkey, plasma, po, 5 mg/kg, Cyno, 5.0 mg kg^−1 p.o., mean ± SD, n=3, read-out: Cmax)?
Answer: 31400 ng/mL

Question: And the concentration at 0.25 hr ([2]; male, cynomolgus monkey, plasma, po, 5 mg/kg, non-human primate, po 5 mg/kg, 0.25 hr, read-out: Plasma level, Individual animals)?
Answer: 9720 ng/mL

Question: And the concentration at 0.25 h ([2]; male, cynomolgus monkey, plasma, po, 5 mg/kg, non-human primate, po 5 mg/kg, 0.25 hr, read-out: Plasma level, Mean)?
Answer: 11100 ng/mL

Question: And the concentration at 0.5 h [2, 6]?
Answer: 28100 ng/mL

Question: And the concentration at 0.5 h [2, 7]?
Answer: 22200 ng/mL

Question: What about the concentration at 1 hr [2, 6] of the same compound?
Answer: 24600 ng/mL

Question: What about the concentration at 1 hr [2, 7] of the same compound?
Answer: 29800 ng/mL

Question: And the concentration at 2 hr [2, 6]?
Answer: 32400 ng/mL

Question: And the concentration at 2 hr [2, 7]?
Answer: 31200 ng/mL
